Assay results reported in US20030119826A1, “Neuroprotective treatment methods using selective iNOS inhibitors” (Pharmacia Corporation, priority 2001, published 2003).
Structures can show the parent of a compound that is named as a salt. Where two headings read alike, the source gives them in different places.

Experiments:
[1] = tested on: Human Cartilage explants, IL-1β-induced nitric oxide synthase (nitrite production); test: Human cartilage explant assay (nitrite production, IL-1β induced); format: cell-based; settings: inhibition of nitrite production, IL-1β stimulated explants
Description: Bone pieces are rinsed twice with Dulbecco's Phosphate Buffered Saline (GibcoBRL) and once with Dulbecco's Modified Eagles Medium (GibcoBRL) and placed into a petri dish with phenol red free Minimum Essential Medium (MEM) (GibcoBRL). Cartilage was cut into small explants of approximately 15-45 mg in weight and one or two explants per well are placed into either 96 or 48 well culture plates with 200-500 μL of culture media per well. The culture media was either a custom modification of Minimum Essential Medium(Eagle) with Earle's salts (GibcoBRL) prepared without L-Arginine, without L-Glutamine and without phenol red or a custom modification of serumless Neuman and Tytell (GibcoBRL) medium prepared without L-arginine, without insulin, without ascorbic acid, without L-glutamine and without phenol red. Both are supplemented before use with 100 μM L-Arginine (Sigma), 2 mM L-glutamine, 1X HL-1 supplement (BioWhittaker), […] ascorbic acid (Sigma) and 150 pg/ml recombinant human IL-1β (RD Systems) to induce nitric oxide synthase. Compounds are then added in 10 μL aliquots and the explants incubated at 37° C. with 5% CO2 for 18-24 hours. The day old supernatant is then discarded and replaced with fresh culture media containing recombinant human IL-1β and compound and incubated for another 20-24 hours. […] All samples are done in quadruplicate. Unstimulated controls are cultured in media in the absence of recombinant human IL-1β. IC50 values (Table I)are determined from plotting the percent inhibition of nitrite production at six different concentrations of inhibitor.

[2] = tested on: LPS-induced increase in plasma nitrite/nitrate levels; test: Endotoxin (LPS)-treated rats, plasma nitrite/nitrate levels; format: in vivo, rat; settings: oral administration, plasma nitrite/nitrate 5 hours post-treatment
Description: Plasma nitrite/nitrate levels can be determined 5 hours post-treatment.

retinal ganglion cells = settings: rats with chronic moderately elevated IOP, cited from earlier work
[3] = Rattus norvegicus, read-out: ED50

| SMILES | IC50 ([1]; Homo sapiens) [µM] | ED50 [2, 3] [mg/kg] | also measured |
| --- | --- | --- | --- |
| COC[C@](N)(CSCCNC(C)=N)C(=O)O [Example J, 2-[[[2-[(1-Iminoethyl)amino]ethyl]thio]methyl]-O-methyl-D-serine, dihydrochloride] |  |  | IC50 [1]: 8.2 µM |
| N=C1CCCC[C@@H](CCCC[C@H](N)C(=O)O)N1 [Example W, ([…]S,2R)-[…]-aminohexahydro-7-imino-1H-azepine-2-hexanoic acid, trihydrate hydrochloride] | > 30 | > 10 |  |
| CC(=NO)NC/C(F)=C\CC[C@H](N)C(=O)O [Example G, (2S,5E)-2-amino-6-fluoro-7-[(1-hydroximinoethyl)amino]-5-heptenoic acid] |  | < 0.1 | melting point: 198 to 200 °C |
| CC(=N)NC/C(F)=C/CC[C@H](N)C(=O)O [Example D, (2S,5Z)-2-amino-6-fluoro-7-[(1-iminoethyl)amino]-5-heptenoic acid, trihydrochloride, dihydrate] | 2.5 | > 10 |  |
| CC(=N)NC/C=C\CC[C@](C)(N)C(=O)O.Cl.Cl [Example LL, (2S,5Z)-2-amino-2-methyl-7-[(1-iminoethyl)amino]-5-heptenoic acid, dihydrochloride] | 0.8 | 0.3 |  |
| N=C1CCCC[C@H](CCCC[C@H](N)C(=O)O)N1 [Example X, ([…]S,2S)-[…]-aminohexahydro-7-imino-1H-azepine-2-hexanoic acid, trihydrate hydrochloride] | < 10 |  |  |
| CC(=N)NC/C(F)=C\CC[C@H](N)C(=O)Nc1nnn[nH]1 [Example H, (2S,5E)-2-amino-6-fluoro-7-[(1-iminoethyl)amino]-N-(1H-tetrazol-5-yl) 5-heptenamide, dihydrochloride] |  | < 0.3 |  |
| CC(=N)NC/C(F)=C\CC[C@H](N)C(=O)O [Example A, (2S,5E)-2-amino-6-fluoro-7-[(1-iminoethyl)amino]-5-heptenoic acid, dihydrochloride, monohydrate] | 0.1 | < 0.1 | ED50 ([2]; dihydrochloride, monohydrate): <0.1 mg/kg |
| CC(=N)NCC(F)=CCC[C@H](N)C(=O)O (mixture of isomers) [Example B, (2S,5E/Z)-2-amino-6-fluoro-7-[(1-iminoethyl)amino]-5-heptenoic acid, dihydrochloride] | 0.2 |  |  |
| N=C1CCCC[C@H](CCCC[C@@H](N)C(=O)O)N1 [Example V, ([…]R,2S)-[…]-aminohexahydro-7-imino-1H-azepine-2-hexanoic acid, trihydrate hydrochloride] | < 10 | < 3 |  |
| N=C(N)NN [aminoguanidine] |  |  | neuroprotection / loss of retinal ganglion cells (retinal ganglion cells): blocks loss of retinal ganglion cells; neuroprotection / loss of retinal ganglion cells (retinal ganglion cells; listed as Aminoguanidine): provide neuroprotection to retinal ganglion cells |
| N=C1CCCC[C@H](CCCC[C@@H](N)C(=O)O)N1 [Example Y, ([…]R,2S)-[…]-aminohexahydro-7-imino-1H-azepine-2-hexanoic acid, trihydrate hydrochloride] |  |  | IC50 [1]: < 10 µM |
| CC(=N)NC/C(F)=C\CC[C@](C)(N)C(=O)O.Cl.Cl [Example HH, (2S,5E)-2-amino-2-methyl-6-fluoro-7-[(1-iminoethyl)amino]-5-heptenoic acid, dihydrochloride] | 0.4 | 0.4 |  |
